Reference: patent publication EP1551873B1, “AGONISTS AND ANTAGONISTS OF THE HUMAN ODORANT RECEPTOR OR17-4 AND USES THEREOF” (Symrise AG, priority 2002, dated 2004)

Test system: humane Spermien
Assay: Sperm chemotaxis flat capillary assay (cell density in capillary)
Assay type: cell-based, human
Description: Gefrorene Samenproben von fünf gesunden Spendern wurden aus der California Cryobank (Los Angeles, CA, USA) erhalten und für Bioassays gemäß den World Health Organization-Richtlinien (World Health Organization: Laboratory for the examination of human serum and semen-cervical mucus interaction, Cambridge University Press (1993)) vorbereitet. Nachdem die Suspensionen auf 37 °C für 10 Minuten gebracht worden waren, wurde jede Probe in HEPES-gepufferter humaner Tubarflüssigkeit (HTF; Irvine Scientific, Santa Ana, CA, USA) überführt und auf 10^7 Zellen/ml eingestellt. Die Lösungen wurden dann bei 37 °C in einer 5 %-igen CO2-Atmosphäre aufbewahrt und innerhalb von 30 Minuten für Experimente verwendet (P. Quinn, Journal of Assisted Reproductive Genetics 12, 97-105 (1995)). Die Reaktionen von Sperma auf Bourgeonal wurde (a) durch computer-assisted video motion analysis (CAVMA) gemessen, um Veränderungen in der Schwimmgeschwindigkeit (Spermaaktivierung) zu detektieren, und (b) in einem flat capillary-Assay für die Chemotaxis in der Nähe einer Diffusionsmaterialquelle untersucht. Für jede Test-oder Kontroll-Behandlung wurden fünf wiederholte Experimente unter Verwendung von Sperma der fünf Spender durchgeführt. Die Daten der Bioassays wurden statistisch durch Ein-Weg-Varianzanalyse (ANOVA) unter Verwendung eines post-hoc Scheffe-Tests (R. W. Day and G. P. Quinn, Ecol. Monogr. 59, 433-463 (1989)) analysiert. Eine Bonferroni-Korrektur wurde zum Angleichen der α-Levels für multiple Vergleiche verwendet.
Zur Untersuchung der Spermien-Chemotaxis wurden Kammern mit vier getrennten Kompartimenten verwendet, wobei die Kapillar-Methode von Adler (J. Adler, Science 153, 708-716 (1966); J. Adler, Journal of General Microbiology 74, 77-91 (1973)) modifiziert wurde. Jedes Kompartiment bestand aus zwei durch einen Kanal verbundenen Vertiefungen. Die Spermienproben (10^6 Zellen/ml) wurden jeweils in den Vertiefungen vorgelegt. Ein flaches 6 µl-Mikrokapillarröhrchen (Drummond Scientific Co.), das entweder Test- oder Kontrolllösung enthielt, wurde in den Kanal eingeführt, wobei seine beiden Enden die frischen Spermien-Suspensionen innerhalb der zwei Vertiefungen berührten. Nach vier Stunden Inkubation bei 37 °C wurden die Inhalte jeder Kapillare in die Vertiefung eines Toxoplasmose-Objektträgers transferiert, hitzefixiert und mit 0,1 Acridin-Orange 1 Minute lang gefärbt. Zellzählungen wurden dann unter Verwendung eines Olympus-BH2-Mikroskopes, das für Phasenkontrast- und Epifluoreszenz-Applikationen ausgerüstet war (J. A. Riffell, P. J. Krug, R. K. Zimmer, Journal of Experimental Biology 205, 1439-1450 (2002); C. C. Gee and R. K. Zimmer-Faust, Journal of Experimental Biology 200, 3185-3192 (1997)), bei 67-facher Vergrößerung durchgeführt.
Zur Bestimmung der Chemoattraktion von Spermien und des Effekts eines Antagonisten wurde Bourgeonal allein bei 10^-7 M und in Kombination mit 10^-6, 10^-7, 10^-8 oder 10^-9 M n-Undecanal getestet. Während der Durchführung der Chemotaxis-Bioassays wurde das Spermienverhalten innerhalb eines Bereiches von 300 µm vor jeder Kapillarspitze 30 Sekunden lang auf Video aufgenommen. Die Videoaufnahme begann 10 bis 15 Minuten nach dem Experimentbeginn, um die Bildung eines chemischen Gradienten zu ermöglichen. Die Spermien-Orientierung zum Gradienten hin wurde unter Verwendung von CAVMA quantifiziert. […]

Row | Compound | Konzentration ohne weiteren Anstieg der Zelldichte | EC50 (Homo sapiens, Sperm, 4 h, 37 °C, read-out: ED50 (Konzentration, die die halbmaximale Antwort hervorruft), Zelldichte) [nM] | Konzentrationen mit signifikanten Antworten im Verhältnis zur HTF-Kontrolle, Zelldichte (Scheffé test P ≤ 0,03) | Effekt auf das Spermienverhalten, Zelldichte (10^-7 M alone, P > 0,99) | Zelldichte als Antwort auf 10^-7 M Bourgeonal relativ zur HTF-Kontrolle (co-applied with 10^-6, 10^-7 or 10^-8 M n-Undecanal, P > 0,99)
1 | CC(C)(C)c1ccc(CCC=O)cc1 [Bourgeonal] | > 10^-6 M | 30 | ≥ 10^-8 M | – | –
2 | CCCCCCCCCCC=O [n-Undecanal] | – | – | – | keinen messbaren Effekt | nicht signifikant erhöht
